Assay results from patent publication US7514417B2 (CV Therapeutics, Inc., priority 2005, dated 2009).

How the values were obtained:
[1] = cited from earlier work
[2] = molecular target: T1, A1 adenosine receptor (Mesocricetus auratus, UniProt A0A1U8BVR4); assay: Competitive radioligand binding assay, A1 binding affinity, DDT1 cell membranes; set-up: species or system hamster; settings: membranes of DDT cells, tritiated radioligand (3H-CPA) 1.5 nM, 23° C. 90 minutes
T1 construct: A1 adenosine receptor sites on the membranes of DDT cells; endogenous in cells; host or cells: DDT cells (DDT1, hamster vas deferens smooth muscle cell line), membrane preparation
T1 sequence (A0A1U8BVR4 1-326): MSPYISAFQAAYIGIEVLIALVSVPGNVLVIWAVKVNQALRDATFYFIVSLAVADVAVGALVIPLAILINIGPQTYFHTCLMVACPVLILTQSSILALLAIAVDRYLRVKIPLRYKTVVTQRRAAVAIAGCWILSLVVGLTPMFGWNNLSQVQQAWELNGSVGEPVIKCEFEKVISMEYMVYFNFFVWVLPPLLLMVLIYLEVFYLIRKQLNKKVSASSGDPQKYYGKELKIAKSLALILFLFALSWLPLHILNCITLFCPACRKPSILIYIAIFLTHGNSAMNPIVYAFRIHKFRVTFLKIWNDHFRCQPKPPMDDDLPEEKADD
Experimental: DDT cells (hamster vas deferens smooth muscle cell line) were grown as monolayers in petri dishes using Dulbecco's Modified Eagle's Medium (DMEM) containing 2.5 μg mL^−1 amphotericin B, 100 U mL^−1 penicillin G, 0.1 mg mL^−1 streptomycin sulfate and 5% fetal bovine serum in a humidified atmosphere of 95% air and 5% CO2. Cells were subcultured twice weekly by dispersion in Hank's Balanced Salt Solution (HBSS) without the divalent cations and containing 1 mM EDTA. The cells were then seeded in growth medium at a density of 1.2×10^5 cells per plate and experiments were performed 4 days later at approximately one day preconfluence.
Attached cells were washed twice with HBSS (2×10 mL), scraped free of the plate with the aid of a rubber policeman in 5 mL of 50 mM Tris-HCl buffer pH 7.4 at 4° C. and the suspension was homogenized for 10 s. The suspension was then centrifuged at 27,000×g for 10 min. The pellet was resuspended in homogenization buffer by vortexing and centrifuged again as described above. The final pellet was resuspended in 1 vol of 50 mM Tris-HCl buffer pH 7.4 containing 5 mM MgCl2 for A1 adenosine receptor assays. For the [^35S]GTPγS binding assay the final pellet was resuspended in 50 mM Tris-HCl pH 7.4 containing 5 mM MgCl2, 100 mM NaCl and 1 mM dithiothreitol. This membrane suspension was then placed in liquid nitrogen for 10 min and stored at −80° C. Aliquots of the membrane suspension were later thawed and used for assays. The protein content was determined with a Bradford™ Assay Kit using bovine serum albumin as standard.
Briefly, 50-70 ug of membrane protein were incubated in a mixture containing 2U/ml adenosine deaminase and 10 μM GTP-γS in 50 mM Tris-HCl buffer, pH 7.4, with 1 mM EDTA in glass tubes. Stock solutions of the compounds of the invention were serially diluted (10^−10M to 10^−4M) in Tris buffer and added to the incubation mixture. […] After incubation at 23° C. 90 minutes, the reaction was stopped by filtration on a Brandel MR24 cell harvester and washing with ice-cold Tris-EDTA buffer (three times, approximate volume 10 ml/wash) over Whatman GF/B filters (presoaked for 1 h in 0.3% polyethylenimine to reduce non-specific binding). Filters were transferred to scintillation vials and 5 ml of Scintisafe (VWR, Brisbane, Calif.) was added. The amount of radioactivity retained on the filters was determined by liquid scintillation spectrometry.

| Compound | half-life [1] | Ki [2] |
| --- | --- | --- |
| Nc1ncnc2c1ncn2[C@@H]1O[C@H](CO)[C@@H](O)[C@H]1O [adenosine] | less than 10 sec |  |
| (4S,3R,5R)-2-[2-(4-butyl-3,5-dimethylpyrazolyl)-6-(cyclopentylamino)purin-9-yl]-5-(hydroxymethyl)oxolane-3,4-diol [XXVIII] |  | 188 nM |
| (4S,3R,5R)-2-[6-(bicyclo[2.2.1]hept-2-ylamino)-2-pyrazolylpurin-9-yl]-5-(hydroxymethyl)oxolane-3,4-diol [XXXVI] |  | 0.4 nM |
